Experimental data: patent US5681816A, “Method of inducing temporary paralysis of the gastrointestinal tract during medical procedure” (priority 1994, dated 1997)
Like-named read-outs stand apart in the source and are kept apart here.

What was measured:
[1] = for blood pressure and pulse: first patient
Protocol: During the period of observation, vital signs (blood pressure and pulse) and symptoms were continuously recorded. The protocol was such that if the blood pressure dropped by more than 20 mm Hg systolic or diastolic or the pulse increased by more than 30 beats per minute for 2 minutes, intravenous saline was to be administered and the study terminated.

opossum duodenum = settings: cited from earlier work
gastroduodenal motility = settings: cited from earlier work
[2] = in vivo; cited from earlier work
[3] = system: rat and guinea pig isolated midcolon sections; settings: cited from earlier work
[4] = in vivo; cited from earlier work; remark: listed apart in the source
isolated human ileum = settings: all frequencies tested; cited from earlier work
[5] = 1 mg intravenously followed by 2 mg IV over 2 hours

In the case of `CC[C@H](C)[C@H](NC(=O)[C@H](CO)NC(=O)[C@H](CC(N)=O)NC(=O)[C@H](CC(C)C)NC(=O)[C@H](Cc1ccc(O)cc1)NC(=O)[C@H](CCCCN)NC(=O)[C@H](CCCCN)NC(=O)[C@@H](NC(=O)[C@H](C)NC(=O)[C@H](CCSC)NC(=O)[C@H](CCC(N)=O)NC(=O)[C@H](CCCCN)NC(=O)[C@H](CCCN=C(N)N)NC(=O)[C@H](CC(C)C)NC(=O)[C@H](CCCN=C(N)N)NC(=O)[C@@H](NC(=O)[C@H](Cc1ccc(O)cc1)NC(=O)[C@H](CC(N)=O)NC(=O)[C@H](CC(=O)O)NC(=O)[C@@H](NC(=O)[C@H](Cc1ccccc1)NC(=O)[C@@H](NC(=O)[C@H](C)NC(=O)[C@H](CC(=O)O)NC(=O)[C@H](CO)NC(=O)[C@@H](N)Cc1c[nH]cn1)C(C)C)[C@@H](C)O)[C@@H](C)O)C(C)C)C(=O)N[C@@H](CC(C)C)C(=O)N[C@@H](CC(N)=O)C(N)=O` [VIP, vasoactive intestinal peptide], the “blood pressure and pulse” value ([1]; 5 ng VIP per kg) is reported as “slight decrease in systolic pressure and increase in pulse”, the “blood pressure and pulse” value ([1]; higher dose level (20 ng/kg)) is reported as “these effects on blood pressure and pulse were not seen” and the “blood pressure or pulse” value ([1]; second patient, any of the dosages tested) is reported as “no significant change”. For the same molecule, the “effect on blood pressure” value ([1]; summary statement) was “without a significant effect”, the “blood pressure or pulse” value ([1]; third patient, any dose) was “no significant change” and the “adverse reactions such as nausea or vomiting” value ([1]; three patients) was “None of the three patients studied experienced any adverse reactions”.

For glucagon, the “effect on opossum duodenum” value (opossum duodenum) is listed as “stimulated relaxation”, the “cycle length and time between contractile activity in the duodenum” value (gastroduodenal motility; [5]) is listed as “significantly increased” and the mean pressure period (gastroduodenal motility; [5]) is listed as “decreased”. For the same molecule, the “contractions in the antrum” value (gastroduodenal motility; doses as high as 2 mg) was “does not reduce contractions”, the colonoscopic evaluation (gastroduodenal motility; in vivo) was “does not facilitate” and the gastroduodenal motility (gastroduodenal motility; in vivo) was “variable reduction”. The “minimally effective dose for reduction in gastroduodenal motility” value (gastroduodenal motility; in vivo) was 0.5 mg and the “dose at which nausea and vomiting can appear” value [2] was 1 mg.

For `CN1[C@@H]2CC[C@H]1C[C@@H](OC(=O)C(CO)c1ccccc1)C2` (stereo partly drawn) [atropine], the ascending contractions ([3]; all grades of stretch) is given as “strongly inhibits”, the descending relaxation [3] is given as “no effect” and the “beneficial effects during endoscopies (patient tolerance, facilitation of endoscopy)” value [4] is given as “failed to demonstrate any beneficial effects”. The “response to electrical field stimulation” value (isolated human ileum) was “primary relaxation”.
